Here are results for one compound from patent US3959272A, “Aminoalkyl esters of 2-anilino-nicotinic acids” (Societe Anonyme dite: Hexachime, priority 1972, dated 1976).

The series is described as follows: Chronic toxicity in beagle dogs, 3 months. The settings on record: 150 mg/kg each day for 3 months. The series is classed as in vivo, beagle dog. As to the method: Six beagle dogs (3 male and 3 female) received each day for 3 months 150 mg/kg of the product of Example 1.

On to `Cc1cccc(Nc2ncccc2C(=O)OCCN2CCOCC2)c1C` [Example 1, β-Morpholino ethyl nixylate], for which the “biochemical and hematological characteristics” value was “No modification attributable to the treatment was observed”; the “histological examination of the organs” value is on record as “normal”; the mortality entry is given as “No mortality was observed”; the “weights of the dogs” value is “remained normal”.
